In brackets after ≈: the same amount, converted by molar mass. Starred links: 1 amine or outer side, 2 acyl side, 3 side chain; linkers in the order of their positions; H or OH if unused. Positions of bridges follow the written chain, without caps; N, C: chain ends. Non-standard residues stand in square brackets, D forms with d. Residues, ends and D or L forms follow the SMILES beside them. Groups on a side chain read outwards from the residue. Chains are numbered I, II in the order given. εLys = N[C@@H](CCCCN[*:1])C(=O)[*:2]
Legend:
trypsin = trypsin 10 μg/mL, peptide 100 μM in PBS pH 7.4, after 30 min of incubation; RP-HPLC peak area relative to t0
Procedure: Proteolysis was measured by RP-HPLC using the following parameters, as reported.[33] Trypsin with a final concentration of 10 μg/mL was added to a solution of the peptides in PBS (pH 7.4) (100 μM). The reaction was monitored over time using reversed-phase HPLC (C18 reversed-phase Bio-Rad analytical column, 250 × 4 mm, 300 Å pore size, and 7 μm particle size). The column was eluted in 40 min using a linear gradient of 10–90% acetonitrile in water, both containing 0.1% trifluoroacetic acid (v/v), at a flow rate of 0.6 mL/min.

P. aeruginosa PAO1 = type: cell-based, Pseudomonas aeruginosa; settings: PAO1, 24 h
Procedure: (§1) For our experiments, we used strains obtained from the American Type Culture Collection (ATCC), including P. aeruginosa PAO1, E. coli K12 parental type, S. aureus ATCC 6538P, and B. subtilis ATCC 6051. The MIC assays were performed as reported by Wiegand et al. using the broth microdilution method in 96-well round-bottom microplates.[35] The MIC was defined as the lowest concentration at which no bacterial growth was observed. Briefly, bacteria were inoculated into Mueller Hinton broth (MHB), cultured overnight at 37 °C, and transferred to a new MHB until the exponential phase of growth. The bacteria were diluted to 1 × 10^6 CFU/mL using MHB, and the peptides were prepared in double-distilled water (DDW) filtered over a 0.25 μm filter. To 50 μL of the MHB medium containing two fold serially diluted peptides with concentrations ranging from 1.56 to 50 μM were added 50 μL aliquots of the bacterial solution. The plates were incubated for 24 h at 37 °C. The positive and negative controls used were cultured without peptides (100% growth) and uninoculated MHB broth (0% growth). The bacterial growth inhibition was evaluated by measuring the absorbance at 600 nm using a microplate autoreader (SynersyMx, Biotek).

S. aureus ATCC 6538P = type: cell-based, Staphylococcus aureus; settings: ATCC 6538, 24 h
Procedure: as §1

B. subtilis ATCC 6051 = type: cell-based, Bacillus subtilis; settings: ATCC 6051, 24 h
Procedure: as §1

Row | Structure (SMILES) | peptide remaining intact with trypsin (trypsin) | MIC (P. aeruginosa PAO1) [µM] | MIC (S. aureus ATCC 6538P) [µM] | MIC (B. subtilis ATCC 6051) [µM]
1 | CC(C)C[C@H](NC(=O)[C@H](CC(C)C)NC(=O)[C@H](CCCCN)NC(=O)[C@H](CC(C)C)NC(=O)[C@H](CC(C)C)NC(=O)[C@H](CCCCN)NC(=O)[C@H](CCCCN)NC(=O)[C@H](CC(C)C)NC(=O)[C@H](CC(C)C)NC(=O)[C@H](CCCCN)NC(=O)[C@H](CCCCN)NC(=O)[C@H](CC(C)C)NC(=O)[C@H](CC(C)C)NC(=O)[C@H](CCCCN)NC(=O)[C@@H](N)CC(C)C)C(N)=O [Amp1L, reference compound] (H-LKLLKKLLKKLLKLL-NH2) | neither the parental peptide Amp1L nor any of the other modified peptides were detected | 12.5 (≈ 22.6 µg/mL) | 12.5 (≈ 22.6 µg/mL) | 12.5 (≈ 22.6 µg/mL)
2 | CC(C)C[C@H](NC(=O)[C@H](CC(C)C)NC(=O)[C@@H](N)CCCCNC(=O)[C@H](CC(C)C)NC(=O)[C@H](CC(C)C)NC(=O)[C@H](CCCCN)NC(=O)[C@H](CCCCN)NC(=O)[C@H](CC(C)C)NC(=O)[C@H](CC(C)C)NC(=O)[C@H](CCCCN)NC(=O)[C@H](CCCCN)NC(=O)[C@H](CC(C)C)NC(=O)[C@H](CC(C)C)NC(=O)[C@H](CCCCN)NC(=O)[C@@H](N)CC(C)C)C(N)=O [Amp1EP13] (H-LKLLKKLLKKLL[εLys]LL-NH2) | – | 1.56 (≈ 2.82 µg/mL) | 1.56 (≈ 2.82 µg/mL) | 1.56 (≈ 2.82 µg/mL)
3 | CC(C)C[C@H](NC(=O)[C@H](CC(C)C)NC(=O)[C@H](CCCCN)NC(=O)[C@H](CC(C)C)NC(=O)[C@H](CC(C)C)NC(=O)[C@H](CCCCN)NC(=O)[C@H](CCCCN)NC(=O)[C@H](CC(C)C)NC(=O)[C@H](CC(C)C)NC(=O)[C@@H](N)CCCCNC(=O)[C@H](CCCCN)NC(=O)[C@H](CC(C)C)NC(=O)[C@H](CC(C)C)NC(=O)[C@H](CCCCN)NC(=O)[C@@H](N)CC(C)C)C(N)=O [Amp1EP6] (I: H-KLLKKLLKLL-NH2 / II: H-LKLLK; amide I:1-II:C) | – | 1.56 (≈ 2.82 µg/mL) | 1.56 (≈ 2.82 µg/mL) | 1.56 (≈ 2.82 µg/mL)
4 | CC(C)C[C@H](NC(=O)[C@H](CC(C)C)NC(=O)[C@H](CCCCN)NC(=O)[C@H](CC(C)C)NC(=O)[C@H](CC(C)C)NC(=O)[C@H](CCCCN)NC(=O)[C@H](CCCCN)NC(=O)[C@H](CC(C)C)NC(=O)[C@H](CC(C)C)NC(=O)[C@H](CCCCN)NC(=O)[C@H](CCCCN)NC(=O)[C@H](CC(C)C)NC(=O)[C@H](CC(C)C)NC(=O)[C@@H](N)CCCCNC(=O)[C@@H](N)CC(C)C)C(N)=O [Amp1EP2] (H-K(Leu)LLKKLLKKLLKLL-NH2) | – | 1.56 (≈ 2.82 µg/mL) | 1.56 (≈ 2.82 µg/mL) | 1.56 (≈ 2.82 µg/mL)
5 | CC(C)C[C@H](NC(=O)[C@H](CC(C)C)NC(=O)[C@H](CCCCN)NC(=O)[C@H](CC(C)C)NC(=O)[C@H](CC(C)C)NC(=O)[C@H](CCCCN)NC(=O)[C@H](CCCCN)NC(=O)[C@H](CC(C)C)NC(=O)[C@H](CC(C)C)NC(=O)[C@H](CCCCN)NC(=O)[C@@H](N)CCCCNC(=O)[C@H](CC(C)C)NC(=O)[C@H](CC(C)C)NC(=O)[C@H](CCCCN)NC(=O)[C@@H](N)CC(C)C)C(N)=O [Amp1EP5] (H-K([Leu-Leu-Lys-Leu])KLLKKLLKLL-NH2) | – | 3.12 (≈ 5.63 µg/mL) | 3.12 (≈ 5.63 µg/mL) | 1.56 (≈ 2.82 µg/mL)
6 | CC(C)C[C@H](NC(=O)[C@H](CC(C)C)NC(=O)[C@H](CCCCN)NC(=O)[C@H](CC(C)C)NC(=O)[C@H](CC(C)C)NC(=O)[C@@H](N)CCCCNC(=O)[C@H](CCCCN)NC(=O)[C@H](CC(C)C)NC(=O)[C@H](CC(C)C)NC(=O)[C@H](CCCCN)NC(=O)[C@H](CCCCN)NC(=O)[C@H](CC(C)C)NC(=O)[C@H](CC(C)C)NC(=O)[C@H](CCCCN)NC(=O)[C@@H](N)CC(C)C)C(N)=O [Amp1EP10] (H-LKLLKKLLK[εLys]LLKLL-NH2) | – | 3.12 (≈ 5.63 µg/mL) | 3.12 (≈ 5.63 µg/mL) | 3.12 (≈ 5.63 µg/mL)
7 | CC(C)C[C@H](NC(=O)[C@H](CC(C)C)NC(=O)[C@H](CCCCN)NC(=O)[C@H](CC(C)C)NC(=O)[C@H](CC(C)C)NC(=O)[C@H](CCCCN)NC(=O)[C@@H](N)CCCCNC(=O)[C@H](CC(C)C)NC(=O)[C@H](CC(C)C)NC(=O)[C@H](CCCCN)NC(=O)[C@H](CCCCN)NC(=O)[C@H](CC(C)C)NC(=O)[C@H](CC(C)C)NC(=O)[C@H](CCCCN)NC(=O)[C@@H](N)CC(C)C)C(N)=O [Amp1EP9] (H-LKLLKKLL[εLys]KLLKLL-NH2) | 40% | 3.12 (≈ 5.63 µg/mL) | 6.25 (≈ 11.3 µg/mL) | 3.12 (≈ 5.63 µg/mL)
